# Test results published in PubChem BioAssay (NCI).
#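 Tested at 5 concentrations; 48 h exposure; 96-well plates; endpoints linearly interpolated, else capped at highest concentration. Here, GI50 denotes the concentration required for 50% inhibition of growth. TGI marks complete inhibition of growth.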
# What was measured:
# Experiment in all cases: NCI tumour cell line growth inhibition, 48 h
# [1] = tested on: OVCAR-3 ovarian
# [2] = tested on: CCRF-CEM leukemia
# [3] = tested on: UACC-257 melanoma
# [4] = tested on: MDA-N
# [5] = tested on: SF-539 CNS
# [6] = tested on: OVCAR-5 ovarian
# [7] = tested on: HCC-2998 colon
# [8] = tested on: KM12 colon
# [9] = tested on: 786-0 renal
# [10] = tested on: HOP-92 NSCLC
# [11] = tested on: SK-MEL-28 melanoma
# [12] = tested on: OVCAR-8 ovarian
# [13] = tested on: NCI/ADR-RES ovarian
# [14] = tested on: SN12C renal
# [15] = tested on: HCT-116 colon
# [16] = tested on: LOX IMVI melanoma
# [17] = tested on: MALME-3M melanoma
# [18] = tested on: A549 NSCLC
# [19] = tested on: UO-31 renal
# [20] = tested on: MCF7 breast
# [21] = tested on: HOP-62 NSCLC
# [22] = tested on: OVCAR-4 ovarian
# [23] = tested on: SK-OV-3 ovarian
# [24] = tested on: SNB-75 CNS
# [25] = tested on: COLO 205 colon
# [26] = tested on: TK-10 renal
# [27] = tested on: SW-620 colon
# [28] = tested on: K-562 leukemia
# [29] = tested on: PC-3 prostate
# [30] = tested on: A498 renal
# [31] = tested on: M14 melanoma
# [32] = tested on: SF-295 CNS
# [33] = tested on: MDA-MB-231 breast
# [34] = tested on: SNB-19 CNS
# [35] = tested on: HS 578T breast
# [36] = tested on: NCI-H460 lung
# [37] = tested on: HT29 colon
# [38] = tested on: ACHN renal
# [39] = tested on: HCT-15 colon
# [40] = tested on: CAKI-1 renal
# [41] = tested on: SF-268 CNS
# [42] = tested on: SK-MEL-2 melanoma
# [43] = tested on: T-47D breast
# [44] = tested on: NCI-H23 lung
# [45] = tested on: EKVX NSCLC
# [46] = tested on: SK-MEL-5 melanoma
# [47] = tested on: U251 CNS
# [48] = tested on: IGROV1 ovarian
# [49] = tested on: MOLT-4 leukemia
# [50] = tested on: RXF 393 renal
# [51] = tested on: DU-145 prostate
# [52] = tested on: MDA-MB-435
# [53] = tested on: RPMI-8226 leukemia
# [54] = tested on: UACC-62 melanoma
# [55] = tested on: NCI-H226 lung
# [56] = tested on: HL-60(TB) leukemia
# [57] = tested on: NCI-H522 lung
# [58] = tested on: BT-549 breast
# [59] = tested on: SR leukemia
smiles,measurement,setting,value
C/C(Cl)=N\OC(=O)Nc1ccc(C)cc1,TGI,[1],34.3 µM
same,TGI,[2],6.31 µM
same,TGI,[3],32.9 µM
same,TGI,[4],29.9 µM
same,TGI,[5],35.8 µM
same,TGI,[6],32.6 µM
same,TGI,[7],31.4 µM
same,TGI,[8],35.1 µM
same,TGI,[9],32.7 µM
same,TGI,[10],37.1 µM
same,TGI,[11],28.1 µM
same,TGI,[12],32.4 µM
same,TGI,[13],42.1 µM
same,TGI,[14],33.7 µM
same,TGI,[15],38.6 µM
same,TGI,[16],43.7 µM
same,TGI,[17],31 µM
same,TGI,[18],35.6 µM
same,TGI,[19],31.3 µM
same,TGI,[20],25.3 µM
same,TGI,[21],> 100 µM
same,TGI,[22],32.9 µM
same,TGI,[23],31.1 µM
same,TGI,[24],26.3 µM
same,TGI,[25],33.3 µM
same,TGI,[26],28.5 µM
same,TGI,[27],33 µM
same,TGI,[28],> 100 µM
same,TGI,[29],29.3 µM
same,TGI,[30],32.9 µM
same,TGI,[31],30.9 µM
same,TGI,[32],30.5 µM
same,TGI,[33],37.5 µM
same,TGI,[34],> 100 µM
same,TGI,[35],83 µM
same,TGI,[36],33.4 µM
same,TGI,[37],41.6 µM
same,TGI,[38],29.1 µM
same,TGI,[39],31.5 µM
same,TGI,[40],30.4 µM
same,TGI,[41],32.9 µM
same,TGI,[42],33.1 µM
same,TGI,[43],48.2 µM
same,TGI,[44],39 µM
same,TGI,[45],32.3 µM
same,TGI,[46],31.5 µM
same,TGI,[47],29.9 µM
same,TGI,[48],32.5 µM
O=P(O)(O)c1ccccc1Oc1ccccc1,TGI,[1],> 100 µM
same,TGI,[2],> 100 µM
same,TGI,[3],> 100 µM
same,TGI,[4],> 100 µM
same,TGI,[5],> 100 µM
same,TGI,[6],> 100 µM
same,TGI,[7],> 100 µM
same,TGI,[8],> 100 µM
same,TGI,[49],> 100 µM
same,TGI,[9],> 100 µM
same,TGI,[10],> 100 µM
same,TGI,[50],> 100 µM
same,TGI,[51],> 100 µM
same,TGI,[52],> 100 µM
same,TGI,[11],> 100 µM
same,TGI,[12],> 100 µM
same,TGI,[13],> 100 µM
same,TGI,[53],> 100 µM
same,TGI,[14],> 100 µM
same,TGI,[15],> 100 µM
same,TGI,[16],> 100 µM
same,TGI,[54],> 100 µM
same,TGI,[18],> 100 µM
same,TGI,[19],> 100 µM
same,TGI,[20],> 100 µM
same,TGI,[21],> 100 µM
same,TGI,[23],> 100 µM
same,TGI,[24],> 100 µM
same,TGI,[25],> 100 µM
same,TGI,[26],> 100 µM
same,TGI,[27],> 100 µM
same,TGI,[28],> 100 µM
same,TGI,[29],> 100 µM
same,TGI,[30],> 100 µM
same,TGI,[31],> 100 µM
same,TGI,[32],> 100 µM
same,TGI,[33],> 100 µM
same,TGI,[34],> 100 µM
same,TGI,[35],> 100 µM
same,TGI,[36],> 100 µM
same,TGI,[55],> 100 µM
same,TGI,[56],> 100 µM
same,TGI,[57],> 100 µM
same,TGI,[38],> 100 µM
same,TGI,[39],> 100 µM
same,TGI,[58],> 100 µM
same,TGI,[40],> 100 µM
same,TGI,[41],> 100 µM
same,TGI,[42],> 100 µM
same,TGI,[44],> 100 µM
same,TGI,[45],> 100 µM
same,TGI,[46],> 100 µM
same,TGI,[47],> 100 µM
same,TGI,[48],> 100 µM
COC(=O)C1(CCCCCBr)CCCCCCCCCCC1=O (stereo not given),TGI,[1],> 100 µM
same,TGI,[2],45 µM
same,TGI,[3],70.2 µM
same,TGI,[4],> 100 µM
same,TGI,[5],> 100 µM
same,TGI,[6],> 100 µM
same,TGI,[7],> 100 µM
same,TGI,[8],> 100 µM
same,TGI,[49],35.6 µM
same,TGI,[9],> 100 µM
same,TGI,[10],> 100 µM
same,TGI,[50],51.9 µM
same,TGI,[51],> 100 µM
same,TGI,[52],87.5 µM
same,TGI,[11],92.2 µM
same,TGI,[12],> 100 µM
same,TGI,[13],> 100 µM
same,TGI,[14],> 100 µM
same,TGI,[15],> 100 µM
same,TGI,[16],63.3 µM
same,TGI,[17],47.6 µM
same,TGI,[54],> 100 µM
same,TGI,[18],> 100 µM
same,TGI,[19],31.8 µM
same,TGI,[59],55.7 µM
same,TGI,[20],42.2 µM
same,TGI,[21],> 100 µM
same,TGI,[22],> 100 µM
same,TGI,[23],> 100 µM
same,TGI,[25],> 100 µM
same,TGI,[26],> 100 µM
same,TGI,[27],> 100 µM
same,TGI,[28],> 100 µM
same,TGI,[29],> 100 µM
same,TGI,[30],64.7 µM
same,TGI,[31],> 100 µM
same,TGI,[32],> 100 µM
same,TGI,[33],84.6 µM
same,TGI,[34],> 100 µM
same,TGI,[35],> 100 µM
same,TGI,[36],> 100 µM
same,TGI,[55],66.6 µM
same,TGI,[56],49.9 µM
same,TGI,[57],47.5 µM
same,TGI,[37],> 100 µM
same,TGI,[38],> 100 µM
same,TGI,[39],> 100 µM
same,TGI,[40],53.9 µM
same,TGI,[41],> 100 µM
same,TGI,[42],70.1 µM
same,TGI,[43],> 100 µM
same,TGI,[44],> 100 µM
same,TGI,[45],> 100 µM
same,TGI,[46],35.1 µM
same,TGI,[47],> 100 µM
same,TGI,[48],87.2 µM
CN(C)CCCNC(=O)c1cc(NC(=O)c2cc(NC(=O)CCCn3c4ccccc4c4ccccc43)cn2C)cn1C,TGI,[1],> 72.5 µM
same,TGI,[2],> 100 µM
same,TGI,[3],41.2 µM
same,TGI,[5],62.6 µM
same,TGI,[6],> 57.7 µM
same,TGI,[7],18.7 µM
same,TGI,[8],43.9 µM
same,TGI,[49],> 23.1 µM
same,TGI,[9],28.7 µM
same,TGI,[10],40.1 µM
same,TGI,[50],37.8 µM
same,TGI,[51],40.8 µM
same,TGI,[52],> 61.7 µM
same,TGI,[11],92 µM
same,TGI,[12],> 66.2 µM
same,TGI,[13],53.2 µM
same,TGI,[53],39.3 µM
same,TGI,[14],33.2 µM
same,TGI,[15],13.8 µM
same,TGI,[16],> 50.9 µM
same,TGI,[17],> 49 µM
same,GI50,[54],7.28 µM
same,TGI,[54],23 µM
same,TGI,[18],> 67.7 µM
same,TGI,[19],> 58.2 µM
same,GI50,[59],2.24 µM
same,TGI,[59],4.82 µM
same,TGI,[20],39 µM
same,TGI,[21],30.9 µM
same,TGI,[22],35.5 µM
same,TGI,[23],30.8 µM
same,TGI,[24],39.1 µM
same,TGI,[25],7.88 µM
same,TGI,[26],39.3 µM
same,TGI,[27],42.8 µM
same,TGI,[28],11.6 µM
same,TGI,[29],> 56.3 µM
same,TGI,[30],44.3 µM
same,TGI,[31],12.3 µM
same,TGI,[32],> 69.7 µM
same,GI50,[33],4.45 µM
same,TGI,[33],20.9 µM
same,TGI,[34],28.3 µM
same,TGI,[35],49.7 µM
same,TGI,[36],> 94 µM
same,GI50,[55],9.26 µM
same,TGI,[55],39 µM
same,TGI,[56],> 72.4 µM
same,TGI,[57],> 90.6 µM
same,TGI,[37],> 100 µM
same,TGI,[38],> 65.9 µM
same,TGI,[39],> 75.5 µM
same,TGI,[58],46.7 µM
same,TGI,[40],43.5 µM
same,TGI,[41],41.6 µM
same,TGI,[42],> 79.9 µM
same,TGI,[43],28 µM
same,TGI,[44],39.3 µM
same,TGI,[45],46.2 µM
same,TGI,[46],19.6 µM
same,TGI,[47],> 62.2 µM
same,TGI,[48],> 75.9 µM
